How the values were obtained:
PI3K = assay: Immunofluorescence of Ptdlns-3,4,5-P3 production in SYF/cSrc cells; type: cell-based, mouse; settings: for PMA-induced Ptdlns-3,4,5-P3 production: 100 nM PMA with 6 μM bisindolylmaleimide [I], 50 nM wortmannin, LY294002 or 5 μM PP1
Protocol: SYF/cSrc cells were serum-starved for 24 hours. Cells stimulated with 10% serum (panels c-f), 100 nM PMA for 5 (panels g-h), or 15 minutes (panels i-j); as well as treated with 100 nM PMA in combination with 6 μM bisindolylmaleimide [I] (panels k-I) or 50 nM wortmannin (panels m-n). Cells treated with 100 nM PMA in combination with 5 μM PP1 (panel o-p) and Ptdlns-3,4,5-P3 levels evaluated. Cells were immunolabeled with a PI-3,4,5-P3-specific antibody (Echelon, Inc.;1:100) and TRITC-phalloidin (1:500). Secondary antibody for anti-PI-3,4,5-P3 (1:100) was Alexa IgM 647 anti-mouse (1:200). Bars represent 20 μm.
(§1) SYF, SYF/cSrc, p85α+/+ and p85−/− cells were cultured in standard culture media. Transient transfections of SYF, SYF/cSrc, p85α+/+ cells for immunofluorescence were carried out using LipofectAMINE™ Reagent (Invitrogen) as per manufacturer's protocol. Briefly, Approximately 5.0-8.0×10^4 cells per well were transfected at 50-70% confluent on coverstips with 2-4 μg of plasmid DNA and incubated for 3-4 hours. Thirty-six hours after transfection, cells were serum starved for 12 hours, treated, and subsequently fixed and permeablized as previously described (Qian, Y. et. al., 1998). Cells were treated with a PKC activator, 100 nM PMA for 5 or 15 minutes or in combination with the following pretreatments; a PKC inhibitor, 6 μM bisindolylmaleimide [I] for six hours; or PI3K inhibitor, 10 μM LY294002 for six hours; 50 nM Wortmannin for 30 minutes; and/or a Src family inhibitor, 5 μM PP1 for six hours. For actin labeling, a 1:500 dilution of TRITC-phalloidin was used as labeled in the figures. Primary antibody concentrations used were diluted in 5% Bovine Serum Albumin (BSA) dissolved in 1× phosphate-buffered saline (PBS): EC10 mAb-1:500; Phospho-Src Family (Y416) pAb-1:250; Anti-PI-3,4,5-P3 mAb-1:100; Anti-AFAP-110 (F1)pAb-1:1000; Anti-cSrc pAb-1:500; Anti-flag-1:1000. All fluorescent secondary and phalloidin antibodies were diluted 1:200 in 5% BSA, and are labeled according to figure legends. Cells were washed and mounted on slides with Fluoromount-G (Fisher). A Zeiss LSM 510 confocal microscope was used to scan images of about 1 μM in thickness. To prevent cross-contamination between the different fluorochromes, each channel was imaged sequentially using the multitrack recording module before merging the images. For all figures, representative cells are shown (>100 cells examined per image shown).
Ptdlns-3,4,5-P3 production was measured using the anti-Ptdlns-3,4,5-P3 antibody (Echelon, inc.) for analysis by immunofluorescence and contrasted with stress filament integrity, measured using TRITC-phalloidin as previously described (Chen, R. et. al., 2002; Hama, H. et. al., 2004). SYF/cSrc cells were left untreated or treated with serum as controls for PI3K activation. […] In addition, SYF/cSrc cells were stimulated with PMA for 5 or 15 minutes.

PH1 domain of AFAP-110 [1] = target: T1, PH1 domain of AFAP-110 (Gallus gallus, UniProt Q90738); assay: Lipid binding assay (Far Western), GST-PH1; settings: 0.5 μg/ml fusion protein, lipids spotted on membrane
T1 construct: AFAP-110 contains two PH domains, one amino terminal (PH1) and the other carboxy terminal (PH2); made in house; host or cells: bacteria
T1 sequence (Q90738 153-249 limits assumed): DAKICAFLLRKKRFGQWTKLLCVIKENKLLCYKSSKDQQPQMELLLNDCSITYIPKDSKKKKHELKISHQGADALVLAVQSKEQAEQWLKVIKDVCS
Protocol: FIG. 5: The phospholipid binding properties of the PH domains of AFAP-110. A) Pleckstrin homology fusion proteins, GST-PH1, GST-PH2 and GST-DAPP1, were purified from bacteria by affinity chromatography. Phospholipids were spotted onto PVDF membranes as described in the methods section. The membranes were incubated overnight with 0.5 μg/ml • GST-PH1, GST-PH2 or GST-DAPP1. Washed membranes were incubated with anti-GST antibody and exposed to film.
B) Pleckstrin homology fusion protein, GST-PH1, was purified from bacteria by affinity chromatography. Two-fold changes in concentration (1.6 pg-100.0 pg) of phospholipids were spotted onto PVDF membranes as described in the methods section. The PIP arrays were incubated with 0.5 μg/ml fusion protein and probed with anti-GST antibody.
Pleckstrin homology (PH) fusion proteins GST-PH1, GST-PH2 and GST-DAPP1, were purified from bacteria by affinity chromatography. A Far Western Blot procedure was used for detecting the fusion protein binding to nitrocellulose immobilized phospholipids (Stevenson, J. Met. al., 1998); PIP strips and PIP arrays were purchased from Echelon, Inc. Overlay assays measured the relative amounts of GST-tagged fusion protein bound to spotted phospholipids. A plasmid encoding GST-DAPP1 previously shown to bind Ptdlns-3,4-P2 and Ptdlns-3,4,5-P3 (Dowler, S. et. al., 1999) was used as a control, kindly provided by Mark Lemmon (Lemmon, M. A., 2003). The membranes were wetted with methanol and then transferred to blocking solution composed of 3% BSA in TBS containing 1% Tween-20 (TBS-T) for 1 hour at 4° C. Membranes were incubated with 0.5 μg/ml each fusion proteins in TBS-T overnight at 4° C. Following incubation, membranes were rinsed three times with TBS-T, washed for 5 minutes and incubated at 4° C. for 1 hour with anti-GST antibody (1:20000 in TBS-T). Following the standard wash procedure, membranes were incubated at 4° C. for 30 minutes with peroxidase-conjugated secondary antibody (1:30000 in TBS-T). The washed membranes were incubated with chemiluminescence reagent and exposed to X-ray film.

PH1 domain of AFAP-110 [2] = target: T1, PH1 domain of AFAP-110; assay: Lipid sedimentation assay, GST-PH1; type: binding; settings: PC vesicles with lipid 19:1 (PC:PS 7:3), 0.025 mM GST fusion protein
Protocol: E) Lipid sedimentation assay was performed using pleckstrin homology fusion protein GST-PH1 as described in the methods sections. The GST-PH1 fusion protein has the capacity to co-sediment with several lipids containing vesicles as indicated in the pellet (P). Soluble fractions (S) containing unbound GST-PH1 purified fusion proteins were resolved by SDS-PAGE and detected by Coomassie stain.
A sedimentation assay was used to detect PH domain protein association with membrane phospholipids. Phospholipid stock solutions: 1 mg/ml L-α-Ptdlns-4-P, 1.0 mg/ml 1,2-dipalmitoyl-sn-glycero-3-Ptdlns-3-P, 0.1 mg/ml 1,2-dioleoyl-sn-glycero-3-Ptdlns-3,4-P2, and 1 mg/ml L-α-Ptdlns-4,5-P2 in chloroform:methanol:water (60:30:4). However, 10 mg/ml L-α-phosphatidylinositol, 0.1 mg/ml L-α Ptdlns-3-P, 0.2 mg/ml L-α-Ptdlns-3,4,5-P3, 10 mg/ml L-α-phosphatidylserine, and 10 mg/ml L-α-phosphatidylcholine in chloroform neat. All lipid stocks were purged with dry N2 and stored −20° C. The lipid vesicles were prepared as follows utilizing a sonication method. Briefly, in a heavy walled tube, PC and another stock phospholipid (e.g. Ptdlns, Ptdlns-3-P, Ptdlns-4-P, Ptdlns-3,4-P2, Ptdlns-3,5-P2, Ptdlns-3,4,5-P3, or PC) were combined in a 19:1 molar ratio; PC and PS were combined in a 7:3 molar ratio. Lipids were dried with a stream of N2 and traces of solvent were removed by vacuum and resuspended to 5.2 mM PC in buffer B [10 mM HEPES, pH 7.5, 50 mM KCl, 0.5 mM EGTA, and 1.0 mM MgCl2]. The resulting phospholipid sheets were sonicated to form vesicles. Samples were prepared to contain 1.7 mM vesicle PC and 0.025 mM recombinant GST fusion protein (DAPP1 or PH1) in buffer B. Samples were incubated 60 min and centrifuged with a Beckman Airfuge for 15 min at room temperature. 16% of the supernatant and 100% of the pellet from each sample was used for analysis by Laemmli method of SDS polyacrylamide gel electrophoresis. The gels were stained with SYPRO Orange or Coomassie Blue to visualize the proteins.

cSrc = assay: Immunofluorescence: translocation of cSrc from the perinuclear region to the cell periphery; type: cell-based, mouse; settings: SYF cells, 100 nM PMA with 6 μM bisindolylmaleimide or 10 μM LY
Protocol: FIG. 2: Inhibition of PI3K blocks translocation of cSrc from the perinuclear region of mouse embryo fibroblast in response to PMA treatment. SYF and p85−/− null cells were transiently transfected with cSrc and labeled for avian cSrc using EC10, an avian-specific monoclonal antibody (1:500). EC10 was visualized with anti-mouse Atexa Fluor 488 (false colored red for consistency). Cells treated with 100 nM PMA (panel b) induced translocation of cSrc to the cell periphery as indicated by the arrows. However, cells treated with 100 nM PMA in conjunction with 6 μM bisindolylmaleimide (panel c) or 10 μM LY (panel d) blocked the translocation of cSrc as indicated by the arrows. […] (n=nucleus) Bars represent 20 μM.
as §1, with “All fluorescent secondary and phalloidin antibodies were diluted 1:200 in 5% BSA, and are labeled according to figure legends. Cells were washed and mounted on slides with Fluoromount-G (Fisher). A Zeiss LSM 510 confocal microscope was used to scan images of about 1 μM in thickness. To prevent cross-contamination between the different fluorochromes, each channel was imaged sequentially using the multitrack recording module before merging the images. For all figures, representative cells are shown (>100 cells examined per image shown).” left out

[3] = system: AFAP-110 colocalization with cSrc and cSrc activation; assay: Immunofluorescence: PMA-induced colocalization of AFAP-110 with cSrc and cSrc activation in mouse embryo fibroblasts; type: cell-based; settings: 100 nM PMA 15 min
Protocol: FIG. 1: LY294002 blocks PMA-induced colocalization between AFAP-110 and cSrc, and subsequent cSrc activation. A) SYF cells transiently co-expressing GFP-AFAP-110 and cSrc were untreated (panels a-d), treated with 100 nM PMA for 15 minutes (panels e-h), or treated with PMA and either 6 μM bisindolylmaleimide (panels i-I), 10 μM LY294002 (panels m-p) or 50 nM Wortmannin (panels q-t). Fixed cells were immunolabeled with avian specific cSrc antibody, EC10 (1:500), and phospho-Src-family (Tyr416) (1:250) as described in the methods section. Secondary antibodies used were Atexa 546 anti-mouse for EC10 and Alexa 647 anti-rabbit for phospho-Src-family (Tyr416). A merged image was generated to determine colocalization between AFAP-110 and cSrc. Bars represent 20 μM.
D) Knockout MEFs (p85−/−) were transfected with GFP-AFAP-110 and cSrc. Fixed cells were immunolabeled with EC10 (1:500) and phospho-Src-family (Tyr416) (1:250) as described in the methods section. Secondary antibodies used were Alexa 546 anti-mouse for EC10 and Alexa 647 anti-rabbit for phospho-Src-family (Tyr416). Cells treated with 100 riM PMA for 15 minutes (panels e-h). Images were merged to determine colocalization of cSrc and GFP-AFAP-110. Bars represent 20 μm. Mouse embryo fibroblast cells that express the p85α isoform of the PI3K regulatory subunit (p85α+/+) were transfected with GFP-AFAP-110 and cSrc. Fixed cells were immunolabeled with EC10 (1:500) and phospho-Src-family (Tyr416) (1:250) as described in the methods section. Secondary antibodies used were Alexa 546 anti-mouse for EC10 and Alexa 647 anti-rabbit for phospho-Src-family (Tyr416). Images were merged to determine colocalization of cSrc and GFP-AFAP-110. Bars represent 20 μm.
as §1
We utilized SYF cell lines as a model system, mouse embryo fibroblasts engineered to contain null mutations in the c-src,fyn, and c-yes genes (Klinghoffer, R. A. et. al., 1999). The cells were transiently co-transfected with constructs that encode cSrc and GFP-tagged AFAP-110, as previously described (Gatesman, A. et. al., 2004). […]

[4] = SYF cells co-expressing GFP-AFAP-110 and cSrc, pretreatment 6 μM bisindolylmaleimide, 10 μM LY294002 or 50 nM Wortmannin

Row | Compound | binding of GST-PH1 to immobilized phospholipid (far western) (PH1 domain of AFAP-110 [1]) | binding (co-sedimentation) of GST-PH1 to lipid vesicles containing the lipid (PH1 domain of AFAP-110 [2]) | further results
1 | Cc1ccc(-c2nn(C(C)(C)C)c3ncnc(N)c23)cc1 [PP1] | – | – | PMA-directed changes in stress filaments and cell shape (PI3K; 100 nM PMA with 5 μM PP1): impeded; PMA-induced Ptdlns-3,4,5-P3 production (PI3K): did not block
2 | CN(C)CCCn1cc(C2=C(c3c[nH]c4ccccc34)C(=O)NC2=O)c2ccccc21 [bisindolylmaleimide [I]] | – | – | PMA-induced translocation of cSrc from the perinuclear region to the cell periphery (cSrc): blocked; PMA-induced Ptdlns-3,4,5-P3 production (PI3K): blocked; PMA-induced cSrc activation (phospho-Src-family Tyr416) [3, 4]: blocked; PMA-induced colocalization of AFAP-110 with cSrc [3, 4]: blocked; PMA-induced associated morphological changes ([3]; SYF cells, pretreatment 6 μM bisindolylmaleimide or 10 μM LY294002): blocked
3 | Lysophosphatidic acid | not recognized | – | –
4 | phosphatidic acid | better than any other phospholipid analyzed | – | –
5 | phosphatidylinositol-5-phosphate [Ptdlns-5-P] | strong binding | has the capacity to bind | –

Second part, led by results:

Row | binding of GST-PH1 to immobilized phospholipid (far western) (PH1 domain of AFAP-110 [1]) | binding (co-sedimentation) of GST-PH1 to lipid vesicles containing the lipid (PH1 domain of AFAP-110 [2]) | Compound | further results
6 | strong binding | did not bind | CCCCCCCCCCCCCCCC(=O)OC[C@H](COP(=O)(O)O[C@@H]1[C@H](O)[C@H](OP(=O)(O)O)[C@@H](O)[C@H](O)[C@H]1O)OC(=O)CCCCCCCCCCCCCCC [Ptdlns-3-P, phosphatidylinositol-3-phosphate] | –
7 | not recognized | – | Phosphatidylethanolamine | –
8 | did not bind | – | phosphatidylinositol | –
9 | strong binding | has the capacity to bind | phosphatidylinositol-4-phosphate [Ptdlns-4-P] | –
10 | had the capacity to recognize | has the capacity to bind | phosphatidylserine | –

Reference: patent US20080234232A1, “Methods and compositions for targeting AFAP” (priority 2007, published 2008)
